Measured values: US11767313B2, “Compounds as nuclear transport modulators and uses thereof” (XWPHARMA LTD., priority 2018, dated 2023)
Read-outs that look alike come from different tables or passages of the source.

Legend:
[1] = system: U87MG; experiment: CellTiter-Glo cell proliferation assay, U87MG; type: cell-based, human; details: U87MG, Table 12; for IC50: Homo sapiens, U-87 MG; for Bottom / Hill Slope / Top: curve fit
Method: (§1) CellTiter-Glo® Luminescent Cell Viability assay (with Promega CellTiter 96® Luminescent CellTiter-Glo® kit) was used to study the proliferation inhibition by test compounds. Compounds were resuspended in DMSO to make a 25 mM stock suspension. Cells of cancer cell lines or normal tissues were seeded in 96-well plates at 1,500 to 5,000 cells/well overnight. Compounds were 2- or 3-fold diluted serially to obtain 10 concentrations. Then, the drugs were added to the cell wells by Bravo (Agilent) and incubated for 72 hours. The cells were lysed by adding CellTiter-Glo® Reagent (per manufacturer's instructions) and subsequently, the luminescence was read using EnVision® (PerkinElmer).
(§2) The percent of growth was calculated as follows. DMSO-treated cells were employed as vehicle control (High control, HC) and culture medium alone was employed as background (Low control, EC). % growth=100×(Lum sample−Lum EC)/(Lum HC−Lum EC). The ICso was calculated by concentration-response curve fitting using Graphpad Prism.
(§3) Hematological cancer cell lines tested included OCI-AML3, MV-4-11, KG-1, Kasumi-1, K562, THP-1; solid cancer cell lines tested included U87MG, U251, T98G, LN229, A172, H460, H2009, A549; normal cell lines tested included HCN2 and 3T3-L1. […] However, they were not toxic to in vitro cultured normal cells.

[2] = target: T1, XPO1 (Homo sapiens, UniProt O14980); experiment: Compound washout assay in REV-GFP cells
T1 sequence (O14980 whole entry): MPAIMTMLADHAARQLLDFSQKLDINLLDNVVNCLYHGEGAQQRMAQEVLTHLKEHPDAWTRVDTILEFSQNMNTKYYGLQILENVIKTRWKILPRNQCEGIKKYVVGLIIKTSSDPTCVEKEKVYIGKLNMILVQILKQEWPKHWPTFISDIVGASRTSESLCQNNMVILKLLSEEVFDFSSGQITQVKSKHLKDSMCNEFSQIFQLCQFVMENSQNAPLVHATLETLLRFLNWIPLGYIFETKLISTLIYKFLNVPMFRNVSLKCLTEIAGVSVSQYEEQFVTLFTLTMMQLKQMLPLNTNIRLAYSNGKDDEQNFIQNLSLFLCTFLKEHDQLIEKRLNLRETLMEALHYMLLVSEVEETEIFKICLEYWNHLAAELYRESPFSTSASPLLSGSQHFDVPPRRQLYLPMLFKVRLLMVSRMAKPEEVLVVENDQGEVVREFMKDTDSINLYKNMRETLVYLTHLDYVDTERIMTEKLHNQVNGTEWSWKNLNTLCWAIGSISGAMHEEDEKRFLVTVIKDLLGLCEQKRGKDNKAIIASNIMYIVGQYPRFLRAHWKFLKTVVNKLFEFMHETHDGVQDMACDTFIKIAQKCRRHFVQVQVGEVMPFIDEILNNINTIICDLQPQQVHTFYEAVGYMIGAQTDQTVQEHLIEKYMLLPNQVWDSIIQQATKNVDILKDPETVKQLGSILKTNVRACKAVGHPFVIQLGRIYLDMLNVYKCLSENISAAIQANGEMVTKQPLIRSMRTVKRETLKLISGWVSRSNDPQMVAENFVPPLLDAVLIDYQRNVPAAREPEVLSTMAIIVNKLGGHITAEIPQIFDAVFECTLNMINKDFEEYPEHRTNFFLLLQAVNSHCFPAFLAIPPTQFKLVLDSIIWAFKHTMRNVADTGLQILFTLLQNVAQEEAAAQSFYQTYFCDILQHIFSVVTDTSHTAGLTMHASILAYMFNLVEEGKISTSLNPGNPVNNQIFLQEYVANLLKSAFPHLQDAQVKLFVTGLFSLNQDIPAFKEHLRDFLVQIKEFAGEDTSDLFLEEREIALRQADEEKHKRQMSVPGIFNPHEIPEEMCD
Method: In order to evaluate the duration of XPO1 inhibition by test compounds on XPO1 protein after washout, washout assay was performed using REV-GFP cells. The test compounds and positive control were added to the cell well, and the plate was incubated the at 37° C. and 5% CO2 for 1 h. The drug-containing media were removed, the cells were washed, and the fresh media were added. The cells were imagined at the specified time points 0, 4, 24, 48, 72, and 96 hours to evaluate the inhibition of REV nuclear export. […] 4A. […] 4B. […] 4C.

[3] = target: T1, XPO1; experiment: REV-GFP translocation assay in U2OS cells; type: cell-based; set-up: endogenous in cells; host or cells: U2OS cells stably expressing REV-GFP (clones from HD Biosciences); details: for EC50: 1 h
Method: LTD in China, and cells were cultured with growth medium. […] The highest Leptomycin B (LMB) concentration was set to 50 nM and serially diluted as the positive control, while the highest concentrations of other compounds were set to 10 μM. The cells treated with various drugs or DMSO, were incubated at 37° C. and 5% CO2 for 1 h. Then, cells were fixed with 4% formaldehyde for 15 min at room temperature. The cells were washed and stained with 100 μL Hoechst 33342 working solution for 10 min at room temperature in dark, after which the cell fluorescence was imaged with the High-Content Imaging System, ImageXpress® (Molecular Devices) using the 20× objective. The filters were set for Hoechst (350/461 nm) and GFP/FITC (488/509 nm) (wavelength for excitation and emission maxima). The % effect of REV nuclear translocation was calculated with the following formula: % effect=([…]- signals from testing compounds; ILMB-signals of 50 nM LMB group; ICTRL-signals of vehicle control group.

[4] = system: T98G; experiment: CellTiter-Glo cell proliferation assay, T98G; type: cell-based; details: Table 11, read-out: Absolute IC50 (μM) T98G
Method: as §1, §2, §3

[5] = system: LN-229; experiment: CellTiter-Glo cell proliferation assay, LN-229; type: cell-based; details: Table 11, read-out: Absolute IC50 (μM) LN-229
Method: as §1, §2, §3

[6] = system: U251; experiment: CellTiter-Glo cell proliferation assay, U251; type: cell-based; details: Table 11, read-out: Absolute IC50 (μM) U251
Method: as §1, §2, §3

IC50 ([1]; read-out: Absolute IC50) | IC50 ([1]; read-out: Relative IC50) | Compound | Max % Inhibition [1] | Bottom [1] | Hill Slope [1] | Top [1] | also measured
9400 nM | 200 nM | O=C(/C=C\n1cnc(-c2cc(C(F)(F)F)cc(S(F)(F)(F)(F)F)c2)n1)NNC(=O)C1CCC1 [Compound X, (Z)—N′-(3-(3-(3-(Pentafluorosulfaneyl)-5-(trifluoromethyl)phenyl)-1H-1,2,4-triazol-1-yl)acryloyl)cyclobutanecarbohydrazide] | 58.3% | −15.9 | 0.5 | 59.4 | 
 | 100 nM | O=C(/C=C\n1cnc(-c2cc(C(F)(F)F)cc(S(F)(F)(F)(F)F)c2)n1)NNC(=O)C1CC1 [Compound VII, (Z)—N′-(3-(3-(3-(Pentafluorosulfaneyl)-5-(trifluoromethyl)phenyl)-1H-1,2,4-triazol-1-yl)acryloyl)cyclopropanecarbohydrazide] | 49.0% | −6.4 | 1.2 | 45.9 | 
 | 100 nM | CC(C)C(=O)NNC(=O)/C=C\n1cnc(-c2cc(C(F)(F)F)cc(S(F)(F)(F)(F)F)c2)n1 [Compound VIII, (Z)—N′-Isobutyryl-3-(3-(3-(pentafluorosulfaneyl)-5-(trifluoromethyl)phenyl)-1H-1,2,4-triazol-1-yl)acrylohydrazide] | 44.0% | −10.6 | 1.8 | 38.8 | 
18500 nM | 600 nM | CC(CO)(CCl)C(=O)NNC(=O)/C=C\n1cnc(-c2cc(C(F)(F)F)cc(S(F)(F)(F)(F)F)c2)n1 (centres unmarked) [Compound XII, (Z)—N′-(3-Chloro-2-(hydroxymethyl)-2-methylpropanoyl)-3-(3-(3-(pentafluorosulfaneyl)-5-(trifluoromethyl)phenyl)-1H-1,2,4-triazol-1-yl)acrylohydrazide] | 53.9% | −5.5 | 1.2 | 50.9 | 
 | 200 nM | CC1(C(=O)NNC(=O)/C=C\n2cnc(-c3cc(C(F)(F)F)cc(S(F)(F)(F)(F)F)c3)n2)CC1 [Compound XI, (Z)-1-Methyl-N′-(3-(3-(3-(pentafluorosulfaneyl)-5-(trifluoromethyl)phenyl)-1H-1,2,4-triazol-1-yl)acryloyl)cyclopropane-1-carbohydrazide] | 48.5% | −7.6 | 1.8 | 44.6 | 
10000 nM | 300 nM | CC(C)(C)C(=O)NNC(=O)/C=C\n1cnc(-c2cc(C(F)(F)F)cc(C(F)(F)F)c2)n1 [KPT-350, (Z)-3-(3-(3,5-bis(trifluoromethyl)phenyl)-1H-1,2,4-triazol-1-yl)-N′-pivaloylacrylohydrazide, reference compound] | 49.4% | −13.2 | 0.8 | 53.0 | 
 | 100 nM | CCCC(=O)NNC(=O)/C=C\n1cnc(-c2cc(C(F)(F)F)cc(S(F)(F)(F)(F)F)c2)n1 [Compound IX, (Z)—N′-(3-(3-(3-(Pentafluorosulfaneyl)-5-(trifluoromethyl)phenyl)-1H-1,2,4-triazol-1-yl)acryloyl)butyrohydrazide] | 48.3% | −4.6 | 1.6 | 43.6 | 
 |  | CCC(=C/[C@H](C)C/C=C/C(C)=C/[C@@H](C)C(=O)[C@@H](C)[C@H](O)[C@@H](C)C/C(C)=C/C(=O)O)/C=C/[C@@H]1OC(=O)C=C[C@@H]1C [LMB, Leptomycin B, reference compound] |  |  |  |  | sustained retention of REV protein in the nucleus post washout ([2]; 50 nM, 1 h treatment then washout): up to 24 hours; effect on retention of REV protein in the nucleus ([2]; 50 nM, 72 hours post washout): 30%; toxicity / cell number compared to the control ([2]; washout assay): showed toxicity; EC50 ([3]; Rev-GFP-U2OS cells, FIG. 1B, read-out: EC50 in the Rev redistribution): 0.11 nM
 |  | N.N.[Cl][Pt][Cl] [Cisplatin, reference compound] |  |  |  |  | IC50 [4]: 12.3 µM; IC50 [5]: 13 µM; IC50 [6]: 6 µM
 |  | O=C(/C=C\n1cnc(-c2cc(C(F)(F)F)cc(S(F)(F)(F)(F)F)c2)n1)NNc1nccs1 [Compound VI, (Z)-3-(3-(3-(Pentafluorosulfaneyl)-5-(trifluoromethyl)phenyl)-1H-1,2,4-triazol-1-yl)-N′-(thiazol-2-yl)acrylohydrazide] |  |  |  |  | IC50 ([4]; Homo sapiens, T98G): 2.6 µM; IC50 ([5]; Homo sapiens, LN-229): 1.7 µM; IC50 ([6]; Homo sapiens, U-251): 3.8 µM; EC50 ([3]; REV-EGFP U2OS cells, Table 2, read-out: Rev-GFP/EC50): 25.2 nM; IC50 ([3]; Table 10, first (or only) value of the cell): 25.2 nM
